Assay results: US8557770B2, “Method of preventing or reducing scarring of human skin” (Pharmecosse Ltd., priority 2000, dated 2013)

Tests used:
[1] = tested on: fibroblast cultures from normal skin; assay: In vitro myofibroblast differentiation assay (α-smooth muscle actin staining), normal skin fibroblasts; format: cell-based, human; details: GF depleted medium + 5 μg/ml, 14 days
Description: (§1) One of the most important cell types in both normal and pathological scar formation is the myofibroblast. These cells, which differentiate from the unwounded tissue cell type (fibroblasts), are responsible for laying down scar tissue. Indeed myofibroblasts remain present in hypertrophic scars up to four years after the original wounding event. An in vitro assay was accordingly developed to identify actives which prevent or reduce myofibroblast formation and thus identify actives which are effective in reducing and/or preventing scar tissue formation.
(§2) Fibroblast cultures were initiated from normal skin, normal scars, hypertrophic scars (HTS) and burns scars.
Each culture was split into seven parts (A to G) and grown in the following different growth media: […]
(§3) The fibroblasts were grown in these media (which was replenished twice weekly) for fourteen days, fixed and stained immunohistochemically using an antibody specific for α-smooth muscle actin (a marker of myofibroblasts). […] The number of these was counted, as was the total number of cells present, and the proportion of myofibroblasts was then calculated. In this manner, the number of myofibroblasts present in each culture was determined as a percentage of the total number of cells in the culture population.

[2] = tested on: fibroblast cultures from normal scars; assay: In vitro myofibroblast differentiation assay (α-smooth muscle actin staining), normal scar fibroblasts; format: cell-based, human
Description: as §1, §2
(§4) Each culture was split into seven parts (A to G) and grown in the following different growth media:
(§5) (A) was grown in normal growth medium (hereinafter referred to as NGM) which consisted of Dulbecco's modified Eagles Medium (DMEM) plus 10% Foetal Calf Serum (FCS);
(§6) (B) was grown in growth factor depleted medium (hereinafter referred to as GF depleted) which is NGM that is depleted of active polypeptide growth factors including TGFP. It is prepared by treating FCS with a reducing agent in order to attack and cleave the disulphide bonds that determine the conformation and thus the biological activity of the polypeptide growth factors;
(§7) (D) (D1-D4) were grown in growth factor depleted medium plus 1 ng/ml-100 ng/ml of insulin-like Growth Factor-I) (IGF-I) (hereinafter referred to as GF depleted+IGF-I); (E) (E1-E3) were grown in growth factor depleted medium plus 50 ng/ml-[…] of insulin-like Growth Factor II (IGF-II) (hereinafter referred to as GF depleted+IGFII); (F) (F1F3) were grown in growth factor depleted medium plus 25 ng/ml to 100 ng/ml of basic fibroblast growth factor (bFGF) (hereinafter referred to as GF depleted and bFGF); […]
as §3
(§8) Fibroblast cultures were initiated from normal scars (NS) and hypertrophic scars (HTS). […] The number of myofibroblasts was calculated as a percentage of the total cell population and the results are shown in FIGS. 1 and 2 of the drawings.
(§9) Fibroblasts cultures were initiated from normal and hypertrophic scars. […] The number of myofibroblasts were counted and calculated as a percentage of the total cells present.

[3] = tested on: fibroblast cultures from hypertrophic scars (HTS); assay: In vitro myofibroblast differentiation assay (α-smooth muscle actin staining), hypertrophic scar fibroblasts; format: cell-based, human
Description: as §1, §2, §4, §5, §6, §7, §3, §8, §9

[4] = tested on: fibroblast cultures from burns scars; assay: In vitro myofibroblast differentiation assay (α-smooth muscle actin staining), burns scar fibroblasts; format: cell-based, human; details: 14 days
Description: as §1, §2, §4, §5, §6
(D) (D1-D4) were grown in growth factor depleted medium plus 1 ng/ml-100 ng/ml of insulin-like Growth Factor-I) (IGF-I) (hereinafter referred to as GF depleted+IGF-I); (E) (E1-E3) were grown in growth factor depleted medium plus 50 ng/ml-[…] of insulin-like Growth Factor II (IGF-II) (hereinafter referred to as GF depleted+IGFII); (F) (F1F3) were grown in growth factor depleted medium plus 25 ng/ml to 100 ng/ml of basic fibroblast growth factor (bFGF) (hereinafter referred to as GF depleted and bFGF);
(G) (G1-G3) were grown in growth factor depleted medium plus 25 ng/ml to 100 ng/ml of platelet derived growth factor (PDGF) (hereinafter referred to as GF depleted+PDGF).
The fibroblasts were grown in these media (which was replenished twice weekly) for fourteen days, fixed and stained immunohistochemically using an antibody specific for α-smooth muscle actin (a marker of myofibroblasts). The stain caused α-smooth muscle actin to fluoresce green and accordingly cells that had stained green were identified as myofibroblasts. The number of these was counted, as was the total number of cells present, and the proportion of myofibroblasts was then calculated. In this manner, the number of myofibroblasts present in each culture was determined as a percentage of the total number of cells in the culture population.

[5] = tested on: murine incisional wounds (myofibroblasts); assay: Murine incisional wound healing model, α-smooth muscle actin staining score; format: in vivo, male BALB/c mice
Description: After general anesthesia, both posterior flanks on male BALB/c mice were shaved and cleaned with chlorhexidine in spirit. Two 1.5 cm wounds were marked (one in each flank) parallel to the spine with permanent marker. Full thickness incisions were made along these marks down to the level of the chest wall. Both lateral skin flaps were dissected from the underlying chest wall and the wound assessed from hemorrhage. The wound edges were then infiltrated with test substance or vehicle only control, as appropriate, by injection into the wound edges. Insulatard® was diluted in normal saline (0.9%) to give a final test solution of 1 IU/ml. 0.15 ml of this test solution (0.15 IU) was applied to one of the test wounds and saline alone was applied to the contralateral wound on the same animal. Wounds were closed with interrupted 5/0 Prolene® suture. Mice were recovered from the anesthetic individually and housed in groups of 4. […]
The wounds were analysed in the following manner: The comparison of the actual severity of scarring is impossible in this and all other animal models, since in contrast to human wounds, animal wounds are rapidly closed by way of swift epidermal contraction leaving minimal areas of scarring in any case. We therefore attempted to judge the efficacy of insulin in vivo on its ability to affect the number of myofibroblasts present using immunohistochemical staining methods for the myofibroblast marker, α smooth muscle actin. To allow semi-quantitative analysis of the resulting staining, a visual grading system was developed. Scars were assessed and allocated a score depending on the intensity of alpha smooth muscle actin staining within each section. […] Each scar was assessed at a number (minimum of 3) points along its length and the intensity was scored and averaged for each section to allow comparisons between treatments. Two independent assessors assessed the scoring blindly. The number of wounds assessed for each experimental group was 8. […]

[6] = tested on: dermal fibroblast cell lines; assay: Myofibroblast number in dermal fibroblast cell lines in GFD medium with PPAR agonist; format: cell-based, human; details: 1 IU/ml insulin alone, 14 days
Description: Dermal fibroblast cell lines were derived from 3 patients and seeded individually onto sterile coverslips. […] Medium was refreshed twice weekly and cultures were harvested for immunohistochemical staining for α-smooth muscle actin after 14 days. The number of myofibroblasts was counted and calculated as a percentage of the total cells present, and since the ability of each cell line to differentiate into myofibroblasts varied extensively, the results were normalised as follows. Results are expressed as the mean percentage reduction in myofibroblast number for each treatment as compared to the proportion of myofibroblasts identified in GFD medium alone for that cell line. The error bars represent plus or minus one standard deviation.

murine incisional scars = details: 1 dose of insulin (Day 0), harvested after 14 days, n=4
Description: Scars were wrapped in saline soaked swabs and transported immediately to the laboratory for testing. Each scar was dissected into 2 equal strips (perpendicular to the line of the scar), each of which was measured using a Nikon Shadowmeter. The strip of tissue was mounted on the tensiometer, with the scar mounted at 6 mm from the jaws of the clamps. Traction was applied across the scar at a constant rate of 10 mm/minute, and the force required for disruption of the scar measured. Stress values were calculated by normalising load values to cross-sectional area of each specimen and are given in units of MPa.

Insulin: polypeptide hormone; in vivo and Example 9 tests used Insulatard diluted in saline
Number of myofibroblasts - percentage of total cell population [1]: 5.26 percentage of total cell popul | Number of myofibroblasts - percentage of total cell population ([2]; GF depleted medium + 5 μg/ml, 14 days): 6.14 percentage of total cell popul | Effect on induction of myofibroblast differentiation by active TGFβ1 ([2]; NGM plus 5 μg/ml insulin plus 0.5 ng/ml TGFβ1, 5 days): no effect on the rapid induction of myofibroblast differentiation | Number of myofibroblasts - percentage of total cell population ([3]; HTS fibroblasts, GF depleted medium + 5 μg/ml, 14 days): 3.23 percentage of total cell popul | Effect on induction of myofibroblast differentiation by active TGFβ1 ([3]; hypertrophic scar fibroblasts, NGM plus 5 μg/ml insulin plus 0.5 ng/ml TGFβ1, 5 days): no effect on the rapid induction of myofibroblast differentiation | Number of myofibroblasts - percentage of total cell population ([4]; GF depleted medium + 10 ng/ml): 16.44 percentage of total cell popul | Number of myofibroblasts - percentage of total cell population ([4]; GF depleted medium + 100 ng/ml): 15.91 percentage of total cell popul | Number of myofibroblasts - percentage of total cell population ([4]; GF depleted medium + 5 μg/ml): 8.20 percentage of total cell popul | Mean score of α-smooth muscle actin staining (out of maximum of 3) ([5]; 0.15 IU Insulatard injected into wound edges, day 14, 8 wounds): 0.486 | Myofibroblast score ([5]; single dose 0.15 IU on day 0, day 14 after wounding (FIG. 4)): dropping down to normal | Maximum myofibroblast score ([5]; single dose 0.15 IU on day 0, maximum reached over first 7 days (FIG. 4)): 1.92 | Mean percentage reduction in myofibroblast number compared to GFD medium alone [6]: 76.6% | Median wound breaking strength (murine incisional scars): 1.62 MPa
